The source of these data is patent publication US7132425B2, “5-substituted-six-membered heteroaromatic glucokinase activators” (Hoffmann-La Roche Inc., priority 2002, dated 2006).

SMILES strings stand for the structures.

One data set relates to C57BL/6J mice. The experiment in a line: Glucokinase activator in vivo screen (blood glucose after oral dosing). The note with it: oral gavage 50 mg/kg after two hour fast, readings 1, 2, 4 and 6 hours post dose, p≦0.05 for two consecutive assay time points. On the procedure:
Glucokinase Activator in vivo Screen Protocol: C57BL/6J mice are orally dosed via gavage with Glucokinase (GK) activator at 50 mg/kg body weight following a two hour fasting period. Blood glucose determinations are made five times during the six hour post-dose study period.
Mice (n=6) are weighed and fasted for a two hour period prior to oral treatment.

What is called melting point is the temperature of the solid-liquid transition. Consider `CS(=O)(=O)c1ccc([C@@H](CC2CCCC2)C(=O)Nc2cnc(SCCO)cn2)cc1Cl` [Example 6, 2(R)-(3-Chloro-4-methanesulfonyl-phenyl)-3-cyclopentyl-N-[5-(2-hydroxy-ethylsulfanyl)-pyrazin-2-yl]-propionamide], for which the melting point lay within 78 to 81 °C. Moreover, in the data set on C57BL/6J mice, the “decrease in blood glucose compared to vehicle” value was “statistically significant (p≦0.05) decrease in blood glucose”.
The like results for `CN(C)c1ccc(NC(=O)[C@H](CC2CCCC2)c2ccc(S(C)(=O)=O)c(Cl)c2)nc1` [Example 14, 2(R)-(3-Chloro-4-methanesulfonyl-phenyl)-3-cyclopentyl-N-(5-dimethylamino-pyridin-2-yl)-propionamide] were, in that order, 166.2 °C and “statistically significant (p≦0.05) decrease in blood glucose”.
